From paper PMC6813295, “A tumour-selective cascade activatable self-detained system for drug delivery and cancer imaging” (Nature Communications, 2019)
Where a SMILES comes first, the peptide text is derived from it. The star is where a group is joined. X1 = CC1(C)C(=CC=C2CCCC(C=CC3=[N+](CCCCCC(=O)O)c4ccccc4C3(C)C)=C2*)N(CCCCCC(=O)O)c2ccccc21

What was measured:
[1] = molecular target: T1, recombinant human caspase-3 (Homo sapiens, UniProt P42574); test: Caspase-3 cleavage (HPLC) and induced self-assembly (TEM) in HEPES buffer; format: biochemical; settings: caspase-3 2 h, substrate-to-enzyme ratio 1 μM/U, HEPES buffer 50 mM pH 7.4, TEM
T1 construct: purchased Sigma-Aldrich Chemical Co
T1 sequence (P42574 29-175 limits assumed): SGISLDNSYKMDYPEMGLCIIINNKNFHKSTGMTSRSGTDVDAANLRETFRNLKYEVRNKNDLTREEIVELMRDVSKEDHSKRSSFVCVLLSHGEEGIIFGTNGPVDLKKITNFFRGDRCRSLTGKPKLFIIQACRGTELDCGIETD
T1 sequence (P42574 176-277 limits assumed): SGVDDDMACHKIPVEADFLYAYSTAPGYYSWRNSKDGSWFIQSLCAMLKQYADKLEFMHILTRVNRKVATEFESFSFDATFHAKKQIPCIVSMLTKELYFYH
Description: Fig. 2 The structure conformations and self-assembly properties of molecule 1 in aqueous solution. a Illustration of the self-assembly strategy of molecule 1. b CD spectra of molecule 1 and molecule 4 in deionized water at a concentration of 1 μM. c FTIR spectra of molecule 1 in a monomeric state and molecule 4 in a fibrous assembled state. The arrows identify the typical characteristic peaks of the antiparallel β-sheet structure. d TEM image of self-assembled β-sheet nanofibrils of molecule 1 after treatment with caspase-3 (substrate-to-enzyme ratio of 1 μM/U) in HEPES buffer (50 mM, pH 7.4) for 2 h. The manual measurement of the nanofibril diameter is shown in the zoomed image, and the computational simulation result for the length of molecule 4 is inserted. e WAXS and computational simulation results of the β-sheet self-assemblies (molecule 4) identified the β-sheet and laminate spacing of the structures. f The concentration-dependent CD spectra of molecule 4 in the concentration range of 0.5–10 μM. g Time-dependent TEM images of molecule 4 from 10 min to 12 h for monitoring the growth process of the nanofibrous structures. h Temperature-dependent CD intensity changes at 220 nm of molecules 1 and 4 with a heating rate of 1 °C/min and an equilibrium period of 30 s to reveal the self-assembly mechanisms. Scale bar: 100 nm […]

[2] = tested on: human bladder tumour tissues; test: Ex vivo NIR imaging of human intact bladder after intravesical instillation; settings: 70 mL of 50 μM in PBS pH 7.4 instilled, 37 °C, 1 h
Description: After obtaining approval from the institutional review board of the Fourth Hospital of Harbin Medical University, patients with urothelial carcinoma were scheduled for radical cystectomy and appropriate informed consent was obtained. Fresh intact bladder was obtained from the operating room immediately after radical cystectomy and irrigated three times for 5 min via an 18-French (Fr) urinary catheter with sterile saline, and 70 mL of molecule 1 in PBS (50 μM, pH 7.4) was instilled and incubated at 37 °C for 1 h. Then, the unbound molecule 1 was removed by irrigating with sterile saline three times for 5 min, the bladder was opened longitudinally on the anterior wall. Ex vivo fluorescent and white light imaging of the bladder cancer was performed using a near infrared imaging system. To explore the correlation between appearance of fluorescent signal and cancer lesions, standard pathological analysis of represented fluorescent spots were carried out after imaging.

## CC[C@H](C)[C@H](NC(=O)[C@@H]1CCCN1C(=O)[C@@H](NC(=O)[C@H](C)N)C(C)C)C(=O)N[C@@H](C)C(=O)N[C@@H](CCC(N)=O)C(=O)N[C@@H](CCCCN)C(=O)N[C@@H](CC(=O)O)C(=O)N[C@@H](CCC(=O)O)C(=O)N[C@H](C(=O)N[C@@H](CC(=O)O)C(=O)N[C@@H](CCCCN)C(=O)N[C@@H](CC(C)C)C(=O)N[C@H](C(=O)N[C@@H](Cc1ccccc1)C(=O)N[C@@H](Cc1ccccc1)C(=O)N[C@@H](C)C(=O)N[C@@H](CCC(=O)O)C(=O)N[C@@H](CSC1=C(C=CC2=[N+](CCCCCC(=O)O)c3ccccc3C2(C)C)CCCC1=CC=C1N(CCCCCC(=O)O)c2ccccc2C1(C)C)C(=O)NCC(=O)O)C(C)C)C(C)C [molecule 1] (H-AVPIAQKDEVDKLVFFAEC(X1)G-OH)
[1]
  diameter of nanofibrils after incubation with caspase-3: approximately 5.8 ± 0.6 nm
[2]
  signal-to-noise ratio of the tumour area versus surrounding normal tissue: up to 2.7 times
